Columns and labels:
[1] = test system: 4EBP1 T37/T46 phosphorylation (mTORC1); assay: AlphaLISA/MSD analysis of 4EBP1 phosphorylation in MDA-MB-468 cells; format: cell-based; settings: Homo sapiens, MDA-MB-468, read-out: p4EBP1 IC50
[2] = biological target: T1, CCK1 (CCKA) (h) (agonist radioligand) (Homo sapiens, UniProt P32238); assay: Eurofins Safety Screen 44; format: binding; settings: read-out: % Inhibition of Control Values
T1 construct: purchased ActivX Biosciences (KiNativ)

[3] = biological target: T2, 5-HT2B(h) (agonist radioligand) (Homo sapiens, UniProt P41595); assay: Eurofins Safety Screen 44; format: binding; settings: read-out: % Inhibition of Control Values
T2 construct: purchased ActivX Biosciences (KiNativ)

COX2(h) = biological target: T3, COX2(h) (Homo sapiens, UniProt P35354); assay: Eurofins Safety Screen 44; format: biochemical; settings: read-out: % Inhibition of Control Values
T3 construct: Eurofins (ran the panel)

PDE3A (h) = biological target: T4, PDE3A (h) (Homo sapiens, UniProt Q14432); assay: Eurofins Safety Screen 44; format: biochemical; settings: read-out: % Inhibition of Control Values
T4 construct: Eurofins (ran the panel)

ROCK1, ROCK2 = assay: KiNativ kinase panel; format: cell-based, human; settings: 1 μM; MCF-7 Cells; Lys1; VYAMKLLSK

T2 sequence (P41595 whole entry): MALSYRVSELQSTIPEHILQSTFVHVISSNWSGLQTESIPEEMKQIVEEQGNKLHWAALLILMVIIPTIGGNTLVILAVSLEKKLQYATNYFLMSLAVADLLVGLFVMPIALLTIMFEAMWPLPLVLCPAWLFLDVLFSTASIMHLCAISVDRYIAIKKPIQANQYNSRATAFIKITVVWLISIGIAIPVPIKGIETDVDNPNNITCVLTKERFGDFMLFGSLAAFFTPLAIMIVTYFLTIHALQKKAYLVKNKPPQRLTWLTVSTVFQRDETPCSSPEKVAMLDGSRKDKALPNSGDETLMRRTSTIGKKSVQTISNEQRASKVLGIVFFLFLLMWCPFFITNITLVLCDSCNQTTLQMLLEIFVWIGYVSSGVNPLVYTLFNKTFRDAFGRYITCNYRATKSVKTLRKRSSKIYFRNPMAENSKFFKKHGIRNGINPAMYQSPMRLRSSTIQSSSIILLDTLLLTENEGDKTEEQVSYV
T1 sequence (P32238 whole entry): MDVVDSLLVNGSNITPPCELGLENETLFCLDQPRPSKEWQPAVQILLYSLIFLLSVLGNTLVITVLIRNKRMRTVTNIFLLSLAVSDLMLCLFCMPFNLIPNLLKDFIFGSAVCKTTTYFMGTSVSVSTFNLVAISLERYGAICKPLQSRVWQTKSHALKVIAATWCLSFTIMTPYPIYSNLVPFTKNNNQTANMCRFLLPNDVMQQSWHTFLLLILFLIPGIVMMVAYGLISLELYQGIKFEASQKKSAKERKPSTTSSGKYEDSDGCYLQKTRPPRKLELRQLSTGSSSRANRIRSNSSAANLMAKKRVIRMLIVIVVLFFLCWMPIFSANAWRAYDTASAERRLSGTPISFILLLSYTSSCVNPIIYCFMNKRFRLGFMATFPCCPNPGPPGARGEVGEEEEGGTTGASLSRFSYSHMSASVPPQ
T3 sequence (P35354 18-604): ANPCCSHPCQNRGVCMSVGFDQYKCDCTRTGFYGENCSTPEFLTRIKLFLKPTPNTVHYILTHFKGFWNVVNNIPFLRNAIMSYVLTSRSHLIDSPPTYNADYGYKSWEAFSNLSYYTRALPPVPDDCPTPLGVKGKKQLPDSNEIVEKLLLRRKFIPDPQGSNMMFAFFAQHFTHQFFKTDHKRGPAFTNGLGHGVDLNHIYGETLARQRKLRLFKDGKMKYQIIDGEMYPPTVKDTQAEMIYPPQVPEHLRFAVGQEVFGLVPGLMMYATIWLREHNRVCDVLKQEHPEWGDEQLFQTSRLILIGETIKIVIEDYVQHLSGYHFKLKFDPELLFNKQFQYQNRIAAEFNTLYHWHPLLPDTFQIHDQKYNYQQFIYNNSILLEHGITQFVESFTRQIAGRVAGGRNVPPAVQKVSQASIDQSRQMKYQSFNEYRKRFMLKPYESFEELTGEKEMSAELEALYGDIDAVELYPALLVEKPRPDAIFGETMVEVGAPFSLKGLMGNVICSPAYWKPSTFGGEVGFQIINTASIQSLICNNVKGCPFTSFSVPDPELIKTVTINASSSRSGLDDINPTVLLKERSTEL
T4 sequence (Q14432 whole entry): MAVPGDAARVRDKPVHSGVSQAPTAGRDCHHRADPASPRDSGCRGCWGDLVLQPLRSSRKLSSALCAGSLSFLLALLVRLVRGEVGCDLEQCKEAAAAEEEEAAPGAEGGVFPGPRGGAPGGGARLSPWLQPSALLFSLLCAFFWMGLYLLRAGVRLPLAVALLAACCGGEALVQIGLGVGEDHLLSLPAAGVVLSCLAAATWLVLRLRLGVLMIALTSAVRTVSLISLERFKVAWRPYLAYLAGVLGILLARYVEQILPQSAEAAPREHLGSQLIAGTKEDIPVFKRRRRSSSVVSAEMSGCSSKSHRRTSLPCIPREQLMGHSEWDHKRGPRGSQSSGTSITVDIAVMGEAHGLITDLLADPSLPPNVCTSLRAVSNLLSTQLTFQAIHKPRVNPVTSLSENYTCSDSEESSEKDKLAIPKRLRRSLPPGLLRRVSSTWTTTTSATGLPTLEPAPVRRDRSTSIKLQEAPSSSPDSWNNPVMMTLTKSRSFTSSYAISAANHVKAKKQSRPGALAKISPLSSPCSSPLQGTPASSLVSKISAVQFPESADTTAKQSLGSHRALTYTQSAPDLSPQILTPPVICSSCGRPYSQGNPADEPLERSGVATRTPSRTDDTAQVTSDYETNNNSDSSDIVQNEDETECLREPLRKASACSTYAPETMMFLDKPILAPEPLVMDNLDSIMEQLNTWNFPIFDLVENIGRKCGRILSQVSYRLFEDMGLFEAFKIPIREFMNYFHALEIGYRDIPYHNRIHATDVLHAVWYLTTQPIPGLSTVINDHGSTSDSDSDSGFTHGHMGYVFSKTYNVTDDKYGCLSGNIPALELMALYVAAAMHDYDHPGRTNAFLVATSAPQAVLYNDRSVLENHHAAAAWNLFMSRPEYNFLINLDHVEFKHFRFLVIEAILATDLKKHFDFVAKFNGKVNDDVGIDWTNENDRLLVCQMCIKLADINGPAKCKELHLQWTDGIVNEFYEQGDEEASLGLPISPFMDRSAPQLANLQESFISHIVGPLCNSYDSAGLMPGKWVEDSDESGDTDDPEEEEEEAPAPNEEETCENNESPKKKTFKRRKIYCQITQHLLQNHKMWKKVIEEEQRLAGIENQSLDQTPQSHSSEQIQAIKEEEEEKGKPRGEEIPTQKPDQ

| SMILES | IC50 [1] [nM] | inhibition at 10 µM [2] [%] | inhibition at 10 µM [3] [%] | inhibition at 10 µM (COX2(h)) [%] | inhibition at 10 µM (PDE3A (h)) [%] | KiNativ Kinase Panel Data (ROCK1, ROCK2) |
| --- | --- | --- | --- | --- | --- | --- |
| CO[C@H]1C[C@@H]2CC[C@@H](C)[C@@](O)(O2)C(=O)C(=O)N2CCCC[C@H]2C(=O)O[C@H]([C@H](C)C[C@@H]2CC[C@@H](OC(=O)NCCOCCOCCOCCOCCOCCOCCOCCOCCC(=O)N3CCc4cc(Cn5nc(-c6ccc7oc(N)nc7c6)c6c(N)ncnc65)ccc4C3)[C@H](OC)C2)C[C@@H](O)[C@H](C)/C=C(\C)[C@@H](O)[C@@H](OC)C(=O)[C@H](C)C[C@H](C)/C=C/C=C/C=C/1C [compound 38] | 0.48 | -51.3 | -14.5 | 4.4 | -47.2 | – |
| CO[C@H]1C[C@@H]2CC[C@@H](C)[C@@](O)(O2)C(=O)C(=O)N2CCCC[C@H]2C(=O)O[C@H]([C@H](C)C[C@@H]2CC[C@@H](OC(=O)NCCOCCOCCOCCOCCOCCOCCOCCOCCC(=O)NCCS(=O)(=O)c3ccc(C(=O)N4CCOc5ccc(-c6ccc(N)nc6)cc5C4)c(C)c3F)[C@H](OC)C2)C[C@@H](O)[C@H](C)/C=C(\C)[C@@H](O)[C@@H](OC)C(=O)[C@H](C)C[C@H](C)/C=C/C=C/C=C/1C [compound 40] | – | – | – | – | – | -42.0 |

Source: PMC9841523 (Journal of Medicinal Chemistry, 2022)
